The text below walks through data of PubChem BioAssay (NCI).

The structures appear in SMILES notation.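 Cultured in 96-well plates, cells were exposed to test compound for 48 hours across five concentrations. Abbreviation: GI50, concentration required for 50% inhibition of growth. TGI marks complete inhibition of growth.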 Some results are limits rather than exact numbers.

Some test systems named below: MDA-MB-231 breast; SNB-19 CNS; OVCAR-5 ovarian; KM12 colon; CCRF-CEM leukemia; DU-145 prostate; OVCAR-8 ovarian; SK-MEL-28 melanoma; SF-268 CNS; SNB-75 CNS.
Experiment in all cases: growth of human tumour cells (NCI), 48 h

`Oc1ccc2ccccc2c1N=Nc1nccs1`: the GI50 in the experiment with MDA-MB-231 breast was 0.745 µM; with OVCAR-5 ovarian, 5.61 µM; in the experiment on KM12 colon, 0.629 µM; in the experiment on CCRF-CEM leukemia, 0.0932 µM; in the experiment with DU-145 prostate it was 2.17 µM; in the experiment on OVCAR-8 ovarian, 0.494 µM. The GI50 in the experiment on SK-MEL-28 melanoma was 2.55 µM; in the experiment on SF-268 CNS, 0.312 µM; in the experiment with SNB-75 CNS it was 1.46 µM. In addition, the TGI is more than 100 µM in the experiment on MDA-MB-231 breast; more than 100 µM in the experiment with SNB-19 CNS; 25.6 µM in the experiment with OVCAR-5 ovarian; 19.9 µM in the experiment with KM12 colon; 16 µM with DU-145 prostate; 42 µM with OVCAR-8 ovarian. In addition, the results for the TGI with SK-MEL-28 melanoma, with SF-268 CNS and in the experiment on SNB-75 CNS were 18.6 µM, more than 100 µM and 24.7 µM, respectively.

`OCc1c[nH]c2ccccc12`: the GI50 in the experiment with MDA-MB-231 breast was 14.7 µM; in the experiment on SNB-19 CNS, 33 µM; in the experiment with OVCAR-5 ovarian, 20.8 µM; in the experiment on KM12 colon, 16 µM; in the experiment on CCRF-CEM leukemia, 26.9 µM; with DU-145 prostate it was 28.7 µM. For the same compound, the GI50 in the experiment on OVCAR-8 ovarian was 29.8 µM; with SK-MEL-28 melanoma it was 23.5 µM; in the experiment with SF-268 CNS, 33.4 µM; in the experiment with SNB-75 CNS, 24.2 µM. The TGI with MDA-MB-231 breast is 47.7 µM; with SNB-19 CNS it was more than 100 µM; in the experiment with OVCAR-5 ovarian it was 58.6 µM; in the experiment on KM12 colon, 37.2 µM; in the experiment on CCRF-CEM leukemia, more than 100 µM; in the experiment with DU-145 prostate, 77.4 µM. Also, the TGI in the experiment on OVCAR-8 ovarian was more than 100 µM; in the experiment on SK-MEL-28 melanoma it was 50.1 µM; in the experiment on SF-268 CNS it was more than 100 µM; in the experiment on SNB-75 CNS, more than 100 µM.

For `N#Cc1ccc(O)c(C2=NCC(c3cccc(Oc4ccccc4)c3)O2)c1` (stereo not given), the GI50 is 1.28 µM in the experiment with MDA-MB-231 breast; 1.39 µM in the experiment with SNB-19 CNS; 2.95 µM in the experiment with OVCAR-5 ovarian; 0.687 µM in the experiment with KM12 colon; 0.555 µM with CCRF-CEM leukemia; 1.27 µM in the experiment on DU-145 prostate. The GI50 in the experiment with OVCAR-8 ovarian is 0.578 µM; in the experiment with SK-MEL-28 melanoma, 2.09 µM; in the experiment with SF-268 CNS, 1.3 µM; in the experiment on SNB-75 CNS it was 1.08 µM. Also, the TGI in the experiment with MDA-MB-231 breast is 12 µM; with SNB-19 CNS, more than 100 µM; in the experiment with OVCAR-5 ovarian it was more than 100 µM; with KM12 colon, 23.1 µM; in the experiment on CCRF-CEM leukemia, more than 100 µM; with DU-145 prostate, more than 100 µM. Further, the TGI in the experiment with OVCAR-8 ovarian, with SK-MEL-28 melanoma, in the experiment with SF-268 CNS and in the experiment on SNB-75 CNS was more than 100 µM in each case.

In the case of `CC(C)c1nc(CN(C)C(=O)N[C@H](C(=O)N[C@@H](Cc2ccccc2)C[C@H](O)[C@H](Cc2ccccc2)NC(=O)OCc2cncs2)C(C)C)cs1`, the GI50 in the experiment on MDA-MB-231 breast is 18 µM; with SNB-19 CNS, 26.4 µM; in the experiment with OVCAR-5 ovarian, 28.2 µM; in the experiment with KM12 colon it was 23.1 µM; in the experiment with CCRF-CEM leukemia, 19.8 µM; in the experiment on DU-145 prostate, 1.42 µM. Further, the GI50 in the experiment with OVCAR-8 ovarian is 36.3 µM; in the experiment on SK-MEL-28 melanoma it was 21.5 µM; in the experiment on SF-268 CNS, 20.3 µM; with SNB-75 CNS, 20.4 µM. Further, the TGI with MDA-MB-231 breast is 35.1 µM; in the experiment on SNB-19 CNS, more than 89 µM; in the experiment with OVCAR-5 ovarian it was 71.5 µM; in the experiment on KM12 colon it was 56.7 µM; in the experiment with CCRF-CEM leukemia, 50.5 µM; in the experiment on OVCAR-8 ovarian, more than 100 µM. The TGI in the experiment with SK-MEL-28 melanoma was 47.2 µM; with SF-268 CNS, 66.7 µM; with SNB-75 CNS it was 54.3 µM.

Take `COc1ccc(-c2cc(=O)c3c(OC)c(OC)c(OC)cc3o2)cc1`: the TGI with MDA-MB-231 breast is more than 100 µM; in the experiment on SNB-19 CNS it was more than 100 µM; with OVCAR-5 ovarian it was more than 100 µM; in the experiment on CCRF-CEM leukemia it was 74 µM; in the experiment with DU-145 prostate it was more than 100 µM; with OVCAR-8 ovarian it was more than 100 µM. Also, the TGI with SK-MEL-28 melanoma, with SF-268 CNS and in the experiment on SNB-75 CNS was more than 100 µM throughout.

As for `CC/C(=C(/c1ccc(O)cc1)c1ccc(OCCNC)cc1)c1ccccc1`, the GI50 was 1.39 µM with MDA-MB-231 breast; 3.12 µM with SNB-19 CNS; 2.37 µM in the experiment on OVCAR-5 ovarian; 1.87 µM with KM12 colon; 2.39 µM with CCRF-CEM leukemia; 2.63 µM in the experiment on DU-145 prostate. Further, the GI50 with OVCAR-8 ovarian is 2.14 µM; in the experiment with SK-MEL-28 melanoma it was 1.71 µM; in the experiment with SF-268 CNS, 2.48 µM; in the experiment with SNB-75 CNS it was 1.43 µM. Besides, the TGI was 3.09 µM in the experiment on MDA-MB-231 breast; 11.9 µM in the experiment on SNB-19 CNS; 6.25 µM in the experiment on OVCAR-5 ovarian; 3.83 µM with KM12 colon; 6.88 µM with CCRF-CEM leukemia; 6.81 µM with DU-145 prostate. The TGI with OVCAR-8 ovarian is 5.13 µM; with SK-MEL-28 melanoma, 3.21 µM; in the experiment on SF-268 CNS, 7.27 µM; in the experiment with SNB-75 CNS it was 5.24 µM.

Turning to `COc1cc(C2=NOC(c3cc(OC)c(OC)c(OC)c3)C2)ccc1OCCCCOc1cc2c(cc1OC)C(=O)N1CCC[C@H]1C=N2` (stereo not given in full), the GI50 in the experiment with MDA-MB-231 breast was 0.235 µM; in the experiment with SNB-19 CNS, 1.31 µM; with OVCAR-5 ovarian it was 0.4 µM; in the experiment with KM12 colon it was 0.298 µM; with CCRF-CEM leukemia it was 0.164 µM; in the experiment with DU-145 prostate it was 0.432 µM. Moreover, the GI50 in the experiment on OVCAR-8 ovarian was 0.39 µM; in the experiment with SK-MEL-28 melanoma it was 0.229 µM; in the experiment with SF-268 CNS, 0.4 µM; with SNB-75 CNS it was 0.35 µM. In addition, the TGI came out at 0.75 µM with MDA-MB-231 breast; 1.26 µM in the experiment with OVCAR-5 ovarian; 0.882 µM with KM12 colon; 0.466 µM in the experiment with CCRF-CEM leukemia; 3.28 µM in the experiment on DU-145 prostate; 10.9 µM with OVCAR-8 ovarian. In addition, the results for the TGI in the experiment with SK-MEL-28 melanoma, in the experiment with SF-268 CNS and in the experiment on SNB-75 CNS were 0.49 µM, 5.68 µM and 1.6 µM, respectively.

Regarding `C=CC(=O)N1CC2(CCN(c3nc(OC4CCN(CCCOC)CC4)nc4c(OCC(F)(F)F)c(-c5c(C)ccc6[nH]ncc56)c(C5CC5)cc34)CC2)C1`, the GI50 in the experiment with MDA-MB-231 breast is 1.98 µM; in the experiment with SNB-19 CNS, 6.89 µM; in the experiment on OVCAR-5 ovarian, 5.31 µM; in the experiment with KM12 colon, 1.96 µM; with CCRF-CEM leukemia it was 2.46 µM; in the experiment on DU-145 prostate, 2.9 µM. Further, the GI50 in the experiment on OVCAR-8 ovarian is 3.26 µM; in the experiment on SK-MEL-28 melanoma, 1.75 µM; in the experiment on SF-268 CNS, 3.75 µM; in the experiment on SNB-75 CNS, 3.83 µM. For the same compound, the TGI in the experiment with MDA-MB-231 breast was 3.94 µM; in the experiment on SNB-19 CNS, 20.1 µM; with OVCAR-5 ovarian, 18 µM; in the experiment on KM12 colon, 4.04 µM; in the experiment on CCRF-CEM leukemia, 8.09 µM; in the experiment on DU-145 prostate it was 9.12 µM. Further, the TGI is 17.4 µM with OVCAR-8 ovarian, 3.37 µM in the experiment with SK-MEL-28 melanoma, 13.6 µM in the experiment with SF-268 CNS and 16.8 µM with SNB-75 CNS.
